One data set has as its target T1, Kallikrein-5 (Homo sapiens, UniProt Q9Y337).
T1 sequence (Q9Y337 whole entry): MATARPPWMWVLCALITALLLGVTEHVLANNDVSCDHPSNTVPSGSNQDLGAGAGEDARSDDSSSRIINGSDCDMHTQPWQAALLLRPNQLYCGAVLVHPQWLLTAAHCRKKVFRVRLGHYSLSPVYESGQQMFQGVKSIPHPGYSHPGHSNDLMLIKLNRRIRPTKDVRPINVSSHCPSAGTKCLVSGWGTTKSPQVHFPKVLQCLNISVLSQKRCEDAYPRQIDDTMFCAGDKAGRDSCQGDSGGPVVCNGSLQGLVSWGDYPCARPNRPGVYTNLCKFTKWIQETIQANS
Nature of the data set: Inhibition of C-terminal poly-His-tagged human recombinant KLK5 (30 to 293 residues) transfected in CHO cells assessed as inhibition constant using Boc-VPR-AMC as fluorogenic substrate incubated for 30 mins by fluorescence plate reader assay. Type of data set: cell-based.

Data set [1] can be described thus: Stability of the compound in human plasma assessed as half life […] by LC-MS analysis. In kind it is ADME, cell-free.
A further data set deals with Albumin (Homo sapiens, UniProt P02768). Nature of the data set: Binding affinity to human serum albumin by fluorescence polarization assay. (Fluorescence polarisation rises when a labelled molecule tumbles more slowly, as on binding a larger partner.)
Data set [2] in a line: Plasma concentration in C57BL/6J mouse at 6.2 mg/kg, ip measured upto 24 hrs by RP-HPLC analysis. In kind it is ADME, organism-based.
A short description of data set [3]: Drug degradation in C57BL/6J mouse at 6.2 mg/kg, iv measured at 21 to 22 mins by RP-HPLC analysis. In kind it is ADME, organism-based. The conditions noted are these: in vivo, time 21-22 min.
Data set [4] can be described thus: Half life in C57BL/6J mouse at 6.2 mg/kg, iv by RP-HPLC analysis. The conditions noted are these: in vivo. Type of data set: ADME, organism-based.
In another data set the target is Kallikrein-7 (Homo sapiens, UniProt P49862). The data set can be described thus: Inhibition of C-terminal poly-His-tagged human recombinant KLK7 (30 to 253 residues) transfected in CHO cells assessed as inhibition constant using KHLY-pNA as fluorogenic substrate incubated for 30 mins by fluorescence plate reader assay. Type of data set: cell-based.
The nature of data set [5]: Drug uptake in C57BL/6J mouse skin epidermis assessed as half life at 3.2 mg/kg, iv by fluorescence imaging analysis. Type of data set: ADME, organism-based. The conditions noted are these: time 8 hrs.
Data set [6] can be described thus: Drug uptake in C57BL/6J mouse skin epidermis assessed as half life at 6.4 mg/kg, ip measured after 8 hrs by DAPI staining based fluorescence microscope assay. In kind it is ADME, organism-based. The conditions noted are these: in vivo.

Numbered stars: 1 amine (or outer) side, 2 acyl side, 3 side chain; on linkers, the order of the positions; unused ones are H or OH. Bridge positions count the residues as written; N and C are the ends. Square brackets hold non-standard residues; d marks the D form. Peptide text beside a SMILES is read from it. I, II: the chains in the order shown. * marks the point of attachment. X2 = CN(C)c1ccc2c(c1)[Si](C)(C)C1=CC(=[N+](C)C)C=CC1=C2c1cc(C(=O)*)ccc1C(=O)O; X1 = O=C(O)c1cc(C(=O)*)ccc1-c1c2ccc(=O)cc-2oc2cc(O)ccc12; X3 = O=C(C[C@H](CCO)C(=O)[*:2])[C@H](Cc1ccc(O)cc1)N[*:1]; Palmitoyl = CCCCCCCCCCCCCCCC(=O)*; CH2COCH2 = O=C(C[*:1])C[*:2]; hSer = N[C@@H](CCO)C(=O)O; AEEA = NCCOCCOCC(=O)O

Sequence of Albumin (P02768 whole entry): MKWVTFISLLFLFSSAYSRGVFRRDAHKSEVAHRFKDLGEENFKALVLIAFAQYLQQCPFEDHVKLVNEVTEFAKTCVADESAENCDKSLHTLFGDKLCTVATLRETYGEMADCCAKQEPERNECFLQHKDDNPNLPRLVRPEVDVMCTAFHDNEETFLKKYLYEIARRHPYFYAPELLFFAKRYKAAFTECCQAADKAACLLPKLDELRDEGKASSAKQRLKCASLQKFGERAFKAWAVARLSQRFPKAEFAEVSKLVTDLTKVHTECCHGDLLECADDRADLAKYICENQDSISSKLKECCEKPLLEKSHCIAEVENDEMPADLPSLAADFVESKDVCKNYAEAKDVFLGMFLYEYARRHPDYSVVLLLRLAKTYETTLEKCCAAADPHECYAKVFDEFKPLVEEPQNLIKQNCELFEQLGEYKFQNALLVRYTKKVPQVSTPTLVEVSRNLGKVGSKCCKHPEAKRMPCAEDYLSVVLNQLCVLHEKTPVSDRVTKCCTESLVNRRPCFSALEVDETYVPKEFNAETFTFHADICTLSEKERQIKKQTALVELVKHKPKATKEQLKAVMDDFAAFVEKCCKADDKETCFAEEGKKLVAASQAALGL
Sequence of Kallikrein-7 (P49862 whole entry, the tested form may be a part): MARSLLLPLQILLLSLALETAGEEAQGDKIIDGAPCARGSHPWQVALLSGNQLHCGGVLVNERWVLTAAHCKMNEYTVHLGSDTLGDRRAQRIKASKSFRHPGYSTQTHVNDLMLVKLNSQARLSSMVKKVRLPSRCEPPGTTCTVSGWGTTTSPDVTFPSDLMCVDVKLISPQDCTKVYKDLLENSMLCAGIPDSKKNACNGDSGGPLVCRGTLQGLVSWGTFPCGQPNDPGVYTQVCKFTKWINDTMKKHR

As to `C[C@@H](O)[C@@H]1NC(=O)[C@@H](NC(=O)CN)CSCC(=O)CSC[C@@H](C(=O)O)NC(=O)[C@@H]2CCCN2C(=O)[C@H](Cc2ccc(O)cc2)NC(=O)[C@H](CCC(N)=O)NC(=O)[C@H](CCCNC(=N)N)NC1=O` (H-GCTRQYPC-OH; linker 2-8 via CH2COCH2), the Ki (usually the equilibrium dissociation constant of an inhibitor or competing ligand from its target) on Kallikrein-5 worked out at 2.2 nM. Further, the half-life (as a rule, the time needed for the level to fall by half in the phase considered) in data set [1] is under 0.0833 h. Moreover, the Kd – broadly, the free concentration of one partner at which half of the binding sites on the other are occupied at equilibrium, for simple one-to-one binding – on Albumin turned out to be 39 nM.
`CCCCCCCCCCCCCCCC(=O)NCCCC[C@H](NC(=O)[C@H](CCC(=O)O)NC(=O)[C@@H](Cc1ccc(O)cc1)NC(=O)[C@H](CCC(=O)O)NC(=O)COCCOCCNC(=O)c1ccc(-c2c3ccc(=O)cc-3oc3cc(O)ccc23)c(C(=O)O)c1)C(=O)N[C@@H](CCC(=O)O)C(=O)N[C@@H](Cc1ccc(O)cc1)C(=O)N[C@@H](CCC(=O)O)C(=O)NCCOCCOCC(=O)NCCCC[C@H](NC(=O)CNC(=O)[C@@H]1CSCC(=O)CSC[C@H](NC(=O)[C@@H]2CCCN2)C(=O)N[C@@H](CC(C)C)C(=O)N[C@@H](Cc2ccc(O)cc2)C(=O)N[C@@H](CCCC)C(=O)N[C@@H](C)C(=O)N[C@@H](CCCCNC(=N)N)C(=O)N1)C(=O)NCC(N)=O`: the half-life was over 96 h in data set [1] and 6.2 h in data set [4]. The molecule also had a concentration at 24 h in data set [2] of 20 µM. For the same molecule, the Stability result in data set [3] is reported as “Unstable”.
On to `CCCCCCCCCCCCCCCC(=O)NCCCC[C@H](NC(=O)[C@H](CCC(=O)O)NC(=O)[C@H](Cc1ccc(O)cc1)NC(=O)[C@H](CCC(=O)O)NC(=O)COCCOCCNC(=O)c1ccc(-c2c3ccc(=O)cc-3oc3cc(O)ccc23)c(C(=O)O)c1)C(=O)N[C@@H](CCC(=O)O)C(=O)N[C@@H](Cc1ccc(O)cc1)C(=O)N[C@@H](CCC(=O)O)C(=O)NCCOCCOCC(=O)N1CCC[C@H]1C(=O)N[C@H]1CSCC(=O)CSC[C@@H](C(=O)N[C@@H](CO)C(N)=O)NC(=O)[C@H](CCCNC(=N)N)NC(=O)[C@H](C)NC(=O)[C@H](CC(C)C)NC(=O)[C@H](Cc2ccc(O)cc2)NC(=O)[C@H](CC(C)C)NC1=O`, for which the Ki at Kallikrein-7 was found to be 106 nM. Further, the Kd at Albumin turned out to be 168 nM.
Take `CCCCCCCCCCCCCCCC(=O)NCCCC[C@H](NC(=O)[C@@H](CCO)CC(=O)[C@H](Cc1ccc(O)cc1)NC(=O)[C@H](CCO)NC(=O)COCCOCCNC(=O)c1ccc(-c2c3ccc(=O)cc-3oc3cc(O)ccc23)c(C(=O)O)c1)C(=O)N[C@@H](CCO)C(=O)N[C@@H](Cc1ccc(O)cc1)C(=O)N[C@@H](CCC(=O)O)C(=O)NCCOCCOCC(=O)NCCCC[C@H](NC(=O)CNC(=O)[C@@H]1CSCC(=O)CSC[C@H](NC(=O)CNC(C)=O)C(=O)N[C@@H]([C@@H](C)O)C(=O)N[C@@H](CCCNC(=N)N)C(=O)N[C@@H](CCC(N)=O)C(=O)N[C@@H](Cc2ccc(O)cc2)C(=O)N2CCC[C@H]2C(=O)N1)C(=O)NCC(N)=O` (I: Ac-GCTRQYPCGKG-NH2 / II: {X1-AEEA}-[hSer][X3]K(Palmitoyl)[hSer]YE[AEEA]; linker I:2-I:8 via CH2COCH2; amide I:10-II:C): in data set [5], the half-life was 0.64 h.
Consider `CCCCCCCCCCCCCCCC(=O)NCCCC[C@H](NC(=O)[C@@H](CCO)CC(=O)[C@H](Cc1ccc(O)cc1)NC(=O)[C@H](CCO)NC(=O)COCCOCCNC(=O)c1ccc(C(=O)O)c(C2=C3C=CC(=[N+](C)C)C=C3[Si](C)(C)c3cc(N(C)C)ccc32)c1)C(=O)N[C@@H](CCO)C(=O)N[C@@H](Cc1ccc(O)cc1)C(=O)N[C@@H](CCC(=O)O)C(=O)NCCOCCOCC(=O)NCCCC[C@H](NC(=O)CNC(=O)[C@@H]1CSCC(=O)CSC[C@H](NC(=O)CNC(C)=O)C(=O)N[C@@H]([C@@H](C)O)C(=O)N[C@@H](CCCNC(=N)N)C(=O)N[C@@H](CCC(N)=O)C(=O)N[C@@H](Cc2ccc(O)cc2)C(=O)N2CCC[C@H]2C(=O)N1)C(=O)NCC(N)=O` (I: Ac-GCTRQYPCGKG-NH2 / II: {X2-AEEA}-[hSer][X3]K(Palmitoyl)[hSer]YE[AEEA]; linker I:2-I:8 via CH2COCH2; amide I:10-II:C), for which, in data set [6], the Drug uptake entry was “Active”.

These data come from ChEMBL document CHEMBL5137037, “Phage Display Selected Cyclic Peptide Inhibitors of Kallikrein-Related Peptidases 5 and 7 and Their In Vivo Delivery to the Skin” (J Med Chem, 2022).
